# Measured values reported in patent publication US9656945B2, “3-acyl-ingenols II” (LEO LABORATORIES LIMITED, priority 2010, dated 2017).
# Like-named read-outs stand apart in the source and are kept apart here.
# Key:
# Type in all cases: cell-based
# [1] = test system: PMN's (polymorphonuclear leukocytes); assay: Neutrophil oxidative burst assay; settings: Leukocyte, 40 min, read-out: Neutrophil oxidative burst Rel EC50 range
# Method: PMN's (polymorphonuclear leukocytes) were isolated and purified from fresh buffy coats by sequential sedimentation, density centrifugation and lysis of contaminating erythrocytes. Buffy coats were incubated with 2% methocel for 30-45 min to differentially sediment red blood cells. The leukocyte-rich supernatant was transferred to lymphoprep tubes to remove mononuclear cells by density centrifugation (400×g, 30 min). The pellet was resuspended and any remaining erythrocytes lysed using 0.2% NaCl for 30 sec before restoring isotonicity by the addition of 1.2% NaCl. This step was repeated until the cell pellet appears relatively free of red blood cells. Cells were resuspended in DPBS (Dulbecco's Phosphate Buffered Saline) (w.o. Ca^2+, Mg^2+) and the concentration adjusted to 1.4×10^6 cells/ml in HBSS (Hanks Balanced Salt solution) (w Ca^2+, Mg^2+) containing 0.1% BSA (Bovine Serum Albumin) and 5 mM glucose just prior to assay initiation. Titrated reference and test compounds were pre-mixed with HE (Hydroethidine) (10 μM final assay concentration) before addition to 96-well plates containing 2.5×10^5 cells. Following 40 min incubation at RT, changes in the respiratory burst was estimated by measuring fluorescence at 579 nm (excitation: 485 nm) using an Envision plate reader.
# Test compound titration curves were fitted to a four-parameter sigmoidal curve after normalizing the effect of the test compound to the effect of the positive control (5×10^−7 M PEP0005). Rel EC50 denotes the concentration of test compound producing an effect that is midway between the fitted top and bottom. Abs EC50 is the concentration of test compound that provokes a response corresponding to 50% of the maximal effect associated with the positive control (5×10^−7 M PEP0005).
# [2] = test system: Primary human epidermal keratinocytes, HeKa; assay: HeKa cytokine release (IL-8) assay
# Method: Primary human epidermal keratinocytes, HeKa, were seeded (10.000 cells/well) in 96-well plates the day before the assay. Test compounds were diluted in DMSO (dimethyl sulfoxide) and further diluted in assay medium and pipetted into wells of 96 well-plates containing HeKa cells. The plates were incubated for 6 h at 37° C. in humidified air with 5% CO2. Plates are centrifuged briefly to spin down cells at 4° C., the supernatant was removed and analysed by Meso Scale Discovery (MSD) 4-spot cytokine assay (Pro-inflammatory II Ultra Sensitive kit, MSD, MD, USA). The MSD assay employs a sandwich immunoassay format where capture antibodies were coated in a patterned array on the bottom of the wells of a 4-Spot-Multi-MSD plate. Standard samples were incubated in the MULTI-SPOT plates as well, and the cytokine (IL-8) binds to its corresponding capture antibody spot. The cytokine level was quantitated on a SECTOR™ Imager using a cytokine-specific Detection Antibody labelled with MSD SULFO-TAG™ reagent.
# Test compound titration curves were fitted to a four-parameter sigmoidal curve after normalizing the effect of the test compound to the effect of the positive control (1.5×10^−7 M PEP0005). Rel EC50 denotes the concentration of test compound producing an effect that is midway between the fitted top and bottom.
# [3] = test system: HeLa cells (ATCC CCL-002); assay: Necrosis assay; settings: Homo sapiens, 0.5 h, read-out: HeLa necrosis EC50 range
# Method: HeLa cells (ATCC CCL-002) were grown in minimal essential medium (Invitrogen catalog no. 42360) containing 10% fetal bovine serum, 100 IU/ml penicillin and 100 μg/ml streptomycin. 4,000-6,000 cells were seeded into 96-well black ViewPlates-plates, clear bottom, (Perkin Elmer) in 100 μl medium and incubated overnight. Compounds were dissolved and pre-diluted in DMSO in 96-well polypropylene plates (Greiner) in a concentration range of 15 μM to 600 μM. At the time of the experiment cell plates were placed on heating blocks at 37° C., medium was removed and 40 μl fresh, pre-warmed medium was added per well. Cells were incubated for 15 min before addition of compounds. In parallel, 3 μl of compounds were diluted with 197 μl growth medium on a Tecan freedom-EVO pipetting station using 250 μl/s pipetting speed, in order to ensure effective mixing of the highly concentrated compound solutions with the aqueous phase. These pre-dilution plates were then equilibrated on heating blocks at 37° C. for 10 min. 80 μl pre-diluted compound were transferred manually to the corresponding wells containing HeLa cells yielding compound concentrations of 10 μM to 400 μM. Control conditions were 1% DMSO in growth medium (100% viability) and 400 μM ingenol mebutate in growth medium (0% viability). Plates were incubated on the heating blocks at 37° C. for 30 min. At the end of the incubation 10 μl PrestoBlue reagent (Invitrogen) were added to each well, plates were sealed with black seal, followed by incubation at 37° C. for 10 min with gentle shaking (150 rpm). Subsequently, plates were placed at room temperature for 20-30 min. Plates were read immediately after on an Envision Fluorescence reader (Perkin Elmer) with excitation at 535 nm and emission at 630 nm. Test compound titration curves were fitted to a four-parameter sigmoidal curve after normalizing the effect of the test compound to the effect of the positive control (4 10^−4 M PEP0005/ingenol mebutate). AbsEC50 denotes the concentration of test compound producing 50% effect.
# [4] = 6 h, read-out: HeKa cytokine release (IL-8) Rel EC50 range
Compound,EC50 [1] [nM],"EC50 [2, 4] [nM]",EC50 [3] [nM],"EC50 ([1]; 40 min incubation at RT, normalized to positive control 5×10^−7 M PEP0005) [nM]","EC50 ([3]; 30 min at 37° C., PrestoBlue, normalized to 4 10^−4 M PEP0005/ingenol mebutate) [nM]","EC50 ([2]; 6 h at 37° C., normalized to positive control 1.5×10^−7 M PEP0005, read-out: HeKa cytokine release (IL-8) Rel EC50 range) [nM]"
"CC1=C[C@]23C(=O)[C@@H](C=C(CO)[C@@H](O)[C@]2(O)[C@H]1OC(=O)C1=CCCCC1)[C@H]1[C@@H](C[C@H]3C)C1(C)C [Compound 305, Ingenol 3-(cyclohexene-1-carboxylate)]",< 20,< 20,–,–,–,–
"CC1=C[C@]23C(=O)[C@@H](C=C(CO)[C@@H](O)[C@]2(O)[C@H]1OC(=O)C1CCCC1)[C@H]1[C@@H](C[C@H]3C)C1(C)C [Compound 304, Ingenol 3-(cyclopentanecarboxylate)]",< 20,20 to 100,–,–,–,–
"CC1=C[C@]23C(=O)[C@@H](C=C(CO)[C@@H](O)[C@]2(O)[C@H]1OC(=O)C1=C(C)CCCC1(C)C)[C@H]1[C@@H](C[C@H]3C)C1(C)C [Compound 345, Ingenol 3-(2,6,6-trimethylcyclohexene-1-carboxylate)]",< 20,< 20,< 150000,–,–,–
"CNc1cccc(C)c1C(=O)O[C@H]1C(C)=C[C@]23C(=O)[C@@H](C=C(CO)[C@@H](O)[C@]12O)[C@H]1[C@@H](C[C@H]3C)C1(C)C [Compound 339, Ingenol 3-(2-methyl-6-methylamino-benzoate)]",20 to 100,< 20,< 150000,–,–,–
"CC1=C[C@]23C(=O)[C@@H](C=C(CO)[C@@H](O)[C@]2(O)[C@H]1OC(=O)c1ccc(F)cc1)[C@H]1[C@@H](C[C@H]3C)C1(C)C [Compound 311, Ingenol 3-(4-fluoro-benzoate)]",< 20,< 20,< 150000,–,–,–
"C/C=C(/C)C(=O)O[C@H]1C(C)=C[C@]23C(=O)[C@@H](C=C(CO)[C@@H](O)[C@]12O)[C@H]1[C@@H](C[C@H]3C)C1(C)C [Ingenol-3-angelate, reference compound]",–,–,–,< 20,150000 to 350000,< 20
"CC1=C[C@]23C(=O)[C@@H](C=C(CO)[C@@H](O)[C@]2(O)[C@H]1OC(=O)c1cccc2ccccc12)[C@H]1[C@@H](C[C@H]3C)C1(C)C [Compound 319, Ingenol 3-(naphthalene-1-carboxylate)]",< 20,< 20,< 150000,–,–,–
"CC(=O)Nc1cccc(C)c1C(=O)O[C@H]1C(C)=C[C@]23C(=O)[C@@H](C=C(CO)[C@@H](O)[C@]12O)[C@H]1[C@@H](C[C@H]3C)C1(C)C [Compound 337, Ingenol 3-(2-acetylamino-6-methyl-benzoate)]",> 100,> 100,–,–,–,–
"CC1=C[C@]23C(=O)[C@@H](C=C(CO)[C@@H](O)[C@]2(O)[C@H]1OC(=O)C1(C#N)CCCCC1)[C@H]1[C@@H](C[C@H]3C)C1(C)C [Compound 309, Ingenol 3-(1-cyano-cyclohexanecarboxylate)]",< 20,–,–,–,–,–
"COc1cc(C)c(C(=O)O[C@H]2C(C)=C[C@]34C(=O)[C@@H](C=C(CO)[C@@H](O)[C@]23O)[C@H]2[C@@H](C[C@H]4C)C2(C)C)c(OC)c1 [Compound 329, Ingenol 3-(2,4-dimethoxy-6-methyl-benzoate)]",< 20,–,< 150000,–,–,–
"CC1=C[C@]23C(=O)[C@@H](C=C(CO)[C@@H](O)[C@]2(O)[C@H]1OC(=O)C1CCC1)[C@H]1[C@@H](C[C@H]3C)C1(C)C [Compound 303, Ingenol 3-(cyclobutanecarboxylate)]",< 20,> 100,–,–,–,–
"CC1=C[C@]23C(=O)[C@@H](C=C(CO)[C@@H](O)[C@]2(O)[C@H]1OC(=O)c1ccccc1C)[C@H]1[C@@H](C[C@H]3C)C1(C)C [Compound 310, Ingenol 3-(2-methyl-benzoate)]",< 20,< 20,–,–,–,–
"CC1=C[C@]23C(=O)[C@@H](C=C(CO)[C@@H](O)[C@]2(O)[C@H]1OC(=O)c1c(Cl)cc(Cl)cc1Cl)[C@H]1[C@@H](C[C@H]3C)C1(C)C [Compound 318, Ingenol 3-(2,4,6-trichloro-benzoate)]",20 to 100,< 20,–,–,–,–
"CC1=C[C@]23C(=O)[C@@H](C=C(CO)[C@@H](O)[C@]2(O)[C@H]1OC(=O)C1CC1)[C@H]1[C@@H](C[C@H]3C)C1(C)C [Compound 301, Ingenol 3-(cyclopropanecarboxylate)]",20 to 100,> 100,–,–,–,–
"CC1=C[C@]23C(=O)[C@@H](C=C(CO)[C@@H](O)[C@]2(O)[C@H]1OC(=O)c1c(C)cccc1NC(=O)C(C)C)[C@H]1[C@@H](C[C@H]3C)C1(C)C [Compound 338, Ingenol 3-(2-methyl-6-(2-methylpropanoylamino)-benzoate)]",> 100,> 100,–,–,–,–
"CC1=C[C@]23C(=O)[C@@H](C=C(CO)[C@@H](O)[C@]2(O)[C@H]1OC(=O)c1c(C)cccc1O)[C@H]1[C@@H](C[C@H]3C)C1(C)C [Compound 327, Ingenol 3-(2-hydroxy-6-methyl-benzoate)]",< 20,–,150000 to 350000,–,–,–
"C=CCOc1cccc(C)c1C(=O)O[C@H]1C(C)=C[C@]23C(=O)[C@@H](C=C(CO)[C@@H](O)[C@]12O)[C@H]1[C@@H](C[C@H]3C)C1(C)C [Compound 326, Ingenol 3-(2-allyloxy-6-methyl-benzoate)]",< 20,–,< 150000,–,–,–
"CC1=C[C@]23C(=O)[C@@H](C=C(CO)[C@@H](O)[C@]2(O)[C@H]1OC(=O)c1c(C)cccc1Cl)[C@H]1[C@@H](C[C@H]3C)C1(C)C [Compound 328, Ingenol 3-(2-chloro-6-methyl-benzoate)]",< 20,–,< 150000,–,–,–
"COc1cccc(N)c1C(=O)O[C@H]1C(C)=C[C@]23C(=O)[C@@H](C=C(CO)[C@@H](O)[C@]12O)[C@H]1[C@@H](C[C@H]3C)C1(C)C [Compound 334, Ingenol 3-(2-amino-6-methoxy-benzoate)]",20 to 100,20 to 100,–,–,–,–
"CC1=C[C@]23C(=O)[C@@H](C=C(CO)[C@@H](O)[C@]2(O)[C@H]1OC(=O)c1c(Cl)cccc1Cl)[C@H]1[C@@H](C[C@H]3C)C1(C)C [Compound 317, Ingenol 3-(2,6-dichloro-benzoate)]",20 to 100,< 20,–,–,–,–
"CC1=C[C@]23C(=O)[C@@H](C=C(CO)[C@@H](O)[C@]2(O)[C@H]1OC(=O)C1C(C)(C)C1(C)C)[C@H]1[C@@H](C[C@H]3C)C1(C)C [Compound 344, Ingenol 3-(2,2,3,3-tetramethylcyclopropylcarboxylate)]",< 20,< 20,–,–,–,–
